Experimental data from US20240349718A1, “COMPOSITION” (priority 2021, published 2024).
Like-named read-outs stand apart in the source and are kept apart here.

Assay: Lewis acidity: reaction rate constant of CoTPP and oxygen in the presence of a Lewis acid
Type: physicochemical
Protocol: Acetonitrile (MeCN) containing cobalt tetraphenylporphyrin (CoTPP), saturated O2, and a substance to be measured for the Lewis acidity (which is, for example, a cation of metal or the like and is represented by M^n+ in the following reaction scheme (A)) in the following reaction scheme (A) is measured for a change in an ultraviolet-visible absorption spectrum at room temperature. From the obtained reaction rate constant (kcat), the ΔE value (eV) as an index of the Lewis acidity can be calculated. […] The Lewis acidity of an organic compound can also be estimated from an energy level of the lowest unoccupied molecular orbital (LUMO) calculated by quantum chemical calculation.
Examples of the reaction rate constant of CoTPP and oxygen in the presence of a Lewis acid, which is an index of the Lewis acidity measured (calculated) by the above measurement method, are shown below. In the following Table 1, numerical values represented by “kcat, M^−2s^−1” are CoTPP and oxygen in the presence of a Lewis acid. The 5 numerical value represented by “LUMO, eV” is an energy level of LUMO.

[1] = CoTPP and oxygen in MeCN, room temperature

| Compound | kcat [1] | kcat |
| --- | --- | --- |
| Benzalkonium chloride | 0.18 M^−2s^−1 |  |
| Benzethonium chloride | 0.24 M^−2s^−1 |  |
| CCCC[N+](CCCC)(CCCC)CCCC.F[P-](F)(F)(F)(F)F [Tetrabutylammonium hexafluorophosphate] |  | >0.1 M^−2s^−1 |
